Reference: patent US7060277B2 (priority 1996, dated 2006)
Where “and” joins values, the source holds several entries; their conditions need not be identical. Equal entries are not always repeated.

Test system: lethal dose of SEB in D-galactosamine-treated mouse model
Design: species or system BALB/c mice
Settings: in vivo

lcT N K K K V T A Q E L D [pSEBLC(150–161)]
Percent Survival: 29% and 22%
